The source of these data is PMC6199744, “Development of Chemical Proteomics for the Folateome and Analysis of the Kinetoplastid Folateome” (ACS Infectious Diseases, 2018).

The structures appear in SMILES notation. Where two headings read alike, the source gives them in different places.

What all share (format): binding
Test [1] addresses T1, HeLa cell extract proteins (Homo sapiens, UniProt Q9Y5Y0).
T1 construct: endogenous in cells; host or cells: HeLa cell extract
T1 sequence (Q9Y5Y0 1-555): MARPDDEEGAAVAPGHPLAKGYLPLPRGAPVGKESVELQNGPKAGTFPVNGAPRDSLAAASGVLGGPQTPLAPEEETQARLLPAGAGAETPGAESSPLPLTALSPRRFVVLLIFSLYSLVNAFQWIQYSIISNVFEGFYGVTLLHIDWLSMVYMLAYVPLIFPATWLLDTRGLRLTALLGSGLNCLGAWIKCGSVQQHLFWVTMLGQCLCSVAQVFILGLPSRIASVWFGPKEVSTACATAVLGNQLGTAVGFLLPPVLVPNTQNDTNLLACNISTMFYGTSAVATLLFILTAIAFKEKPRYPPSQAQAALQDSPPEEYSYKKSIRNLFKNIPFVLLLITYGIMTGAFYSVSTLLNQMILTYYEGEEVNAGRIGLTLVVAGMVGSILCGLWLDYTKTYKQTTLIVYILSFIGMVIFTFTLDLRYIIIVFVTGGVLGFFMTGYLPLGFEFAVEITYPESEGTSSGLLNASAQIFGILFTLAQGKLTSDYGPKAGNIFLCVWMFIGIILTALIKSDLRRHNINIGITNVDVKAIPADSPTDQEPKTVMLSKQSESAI

In test [2] the target is T2, HeLa cell extract proteins (Homo sapiens, UniProt P20674).
T2 construct: endogenous in cells; host or cells: HeLa cell extract

Test [3] has as its target T3, HeLa cell extract proteins (Homo sapiens, UniProt P53396).
T3 construct: endogenous in cells; host or cells: HeLa cell extract
T3 sequence (P53396 1-1101): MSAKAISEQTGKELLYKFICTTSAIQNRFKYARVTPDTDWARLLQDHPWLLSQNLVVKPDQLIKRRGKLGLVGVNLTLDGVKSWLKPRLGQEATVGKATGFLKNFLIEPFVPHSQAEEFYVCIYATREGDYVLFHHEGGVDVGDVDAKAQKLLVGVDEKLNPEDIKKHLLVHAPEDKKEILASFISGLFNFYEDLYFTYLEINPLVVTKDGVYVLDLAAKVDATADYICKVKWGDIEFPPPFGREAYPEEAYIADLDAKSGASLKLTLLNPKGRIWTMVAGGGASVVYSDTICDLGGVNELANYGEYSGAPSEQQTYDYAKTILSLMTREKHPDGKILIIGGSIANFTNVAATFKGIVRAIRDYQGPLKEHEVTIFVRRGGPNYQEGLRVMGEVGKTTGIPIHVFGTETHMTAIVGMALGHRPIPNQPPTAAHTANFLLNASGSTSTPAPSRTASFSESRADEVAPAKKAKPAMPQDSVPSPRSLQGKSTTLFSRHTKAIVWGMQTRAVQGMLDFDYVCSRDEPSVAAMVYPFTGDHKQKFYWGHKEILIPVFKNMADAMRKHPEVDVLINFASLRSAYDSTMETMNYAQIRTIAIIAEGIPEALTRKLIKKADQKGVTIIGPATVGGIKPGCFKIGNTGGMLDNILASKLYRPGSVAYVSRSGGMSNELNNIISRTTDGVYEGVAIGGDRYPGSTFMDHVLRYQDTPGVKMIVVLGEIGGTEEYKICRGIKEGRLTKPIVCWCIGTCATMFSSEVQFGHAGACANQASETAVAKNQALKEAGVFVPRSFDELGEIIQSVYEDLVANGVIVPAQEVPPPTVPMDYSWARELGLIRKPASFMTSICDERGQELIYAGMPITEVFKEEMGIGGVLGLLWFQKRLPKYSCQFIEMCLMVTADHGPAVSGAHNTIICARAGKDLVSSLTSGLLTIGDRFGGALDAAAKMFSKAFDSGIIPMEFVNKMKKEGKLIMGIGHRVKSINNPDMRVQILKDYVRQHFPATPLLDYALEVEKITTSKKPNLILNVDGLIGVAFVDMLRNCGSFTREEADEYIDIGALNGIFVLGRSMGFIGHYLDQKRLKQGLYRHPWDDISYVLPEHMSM

Test [4] concerns the target T4, HeLa cell extract proteins (Homo sapiens, UniProt Q86VP6).
T4 construct: endogenous in cells; host or cells: HeLa cell extract
T4 sequence (Q86VP6 1-1230): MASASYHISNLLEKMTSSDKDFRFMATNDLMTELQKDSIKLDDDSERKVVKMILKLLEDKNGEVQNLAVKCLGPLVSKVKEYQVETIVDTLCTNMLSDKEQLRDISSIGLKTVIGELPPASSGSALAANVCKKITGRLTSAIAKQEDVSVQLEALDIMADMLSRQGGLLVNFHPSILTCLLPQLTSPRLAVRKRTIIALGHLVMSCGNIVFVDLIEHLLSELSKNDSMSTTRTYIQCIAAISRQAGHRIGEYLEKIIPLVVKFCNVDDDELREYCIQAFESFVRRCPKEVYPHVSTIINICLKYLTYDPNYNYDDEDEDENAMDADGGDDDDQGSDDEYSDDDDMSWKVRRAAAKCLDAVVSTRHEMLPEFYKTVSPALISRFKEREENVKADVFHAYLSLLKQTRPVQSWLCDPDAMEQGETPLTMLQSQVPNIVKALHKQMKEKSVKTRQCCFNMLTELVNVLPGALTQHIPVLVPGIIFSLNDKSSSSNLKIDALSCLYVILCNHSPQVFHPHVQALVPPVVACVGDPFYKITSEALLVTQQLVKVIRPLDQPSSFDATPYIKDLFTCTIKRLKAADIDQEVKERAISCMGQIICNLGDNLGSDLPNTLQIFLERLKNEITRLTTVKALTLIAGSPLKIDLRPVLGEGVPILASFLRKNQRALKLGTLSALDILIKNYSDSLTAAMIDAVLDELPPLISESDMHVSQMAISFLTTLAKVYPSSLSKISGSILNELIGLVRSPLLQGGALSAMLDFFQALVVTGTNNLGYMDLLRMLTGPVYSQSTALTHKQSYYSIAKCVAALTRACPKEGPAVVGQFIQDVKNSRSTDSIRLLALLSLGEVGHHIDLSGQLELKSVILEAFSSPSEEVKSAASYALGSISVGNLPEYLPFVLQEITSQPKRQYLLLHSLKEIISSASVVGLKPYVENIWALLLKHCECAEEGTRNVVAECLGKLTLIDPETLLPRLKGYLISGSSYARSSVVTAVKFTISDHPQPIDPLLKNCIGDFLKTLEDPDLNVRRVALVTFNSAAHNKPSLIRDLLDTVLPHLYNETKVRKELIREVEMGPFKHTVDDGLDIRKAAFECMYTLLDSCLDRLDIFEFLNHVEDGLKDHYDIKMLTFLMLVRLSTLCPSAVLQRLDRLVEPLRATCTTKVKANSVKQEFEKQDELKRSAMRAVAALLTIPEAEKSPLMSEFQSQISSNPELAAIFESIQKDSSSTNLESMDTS

T2 sequence (P20674 42-150): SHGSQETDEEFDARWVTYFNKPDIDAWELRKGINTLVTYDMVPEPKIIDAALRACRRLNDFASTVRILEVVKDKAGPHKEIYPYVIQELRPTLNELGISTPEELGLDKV

On to `Nc1nc2cccc(-c3ccccc3)c2n1Cc1ccc(Cl)c(Cl)c1` [compound 3], for which the “fold changes relative to vehicle control” value in test [1] (HeLa, protein FLVCR1) came out at 0.75; in test [2] (captured protein COX5A, HeLa), 1.18; in test [3] (protein ACLY, HeLa), 1.2; in test [4] (protein CAND1, HeLa) it was 0.86.

Consider `NCCOCCOCC(=O)Nc1nc2ncc(CNc3ccc(C(=O)NC(CCC(=O)O)C(=O)O)cc3)nc2c(=O)[nH]1` (stereo not shown) [compound 6], for which the “fold changes relative to vehicle control” value in test [1] (protein FLVCR1, HeLa) stood at 0.62; in test [2] (HeLa, captured protein COX5A), 1.87; in test [3] (HeLa, protein ACLY), 1.19; in test [4] (protein CAND1, HeLa), 1.11.

Take `Nc1nc2[nH]cc(CCc3ccc(C(=O)N[C@@H](CCC(=O)O)C(=O)O)cc3)c2c(=O)[nH]1` [PTX, pemetrexed]: the “fold changes relative to vehicle control” value in test [1] was 0.59; in test [2], 1.5; in test [3], 1.1; in test [4] it was 0.96.

As for `Nc1nc2c(c(=O)[nH]1)N(C=O)C(CNc1ccc(C(=O)N[C@@H](CCC(=O)O)C(=O)O)cc1)CN2` (stereo partly shown) [LEU, leucovorin], the “fold changes relative to vehicle control” value turned out to be 0.57 in test [1] (protein FLVCR1, HeLa); 1.23 in test [2] (HeLa, captured protein COX5A); 1.04 in test [3] (HeLa, protein ACLY); 0.99 in test [4] (protein CAND1, HeLa).

Consider `CCCCCCOc1ccc(Cc2cnc(N)nc2N)cc1` [compound 1], for which the “fold changes relative to vehicle control” value is listed as 0.78 in test [1] (HeLa, protein FLVCR1); 0.98 in test [2] (captured protein COX5A, HeLa); 1.25 in test [3] (protein ACLY, HeLa); 1.15 in test [4] (protein CAND1, HeLa).

Turning to `NCCCNc1ccc(C(=O)NC(CCC(=O)O)C(=O)O)cc1` (stereo not shown) [compound 7], the “fold changes relative to vehicle control” value in test [1] (protein FLVCR1, HeLa) is reported as 0.57; in test [2] (HeLa, captured protein COX5A), 1.63; in test [3] (HeLa, protein ACLY), 1.04; in test [4] (protein CAND1, HeLa), 0.77.

With `CCCCCCOc1cccc(Cc2cnc(N)nc2N)c1` [compound 2], the “fold changes relative to vehicle control” value was found to be 0.95 in test [1] (HeLa, protein FLVCR1); 0.91 in test [2] (captured protein COX5A, HeLa); 1.99 in test [3] (protein ACLY, HeLa); 1.95 in test [4] (protein CAND1, HeLa).
